Data published in patent publication US4720493A, “Thienylthiazole compounds” (Yoshitomi Pharmaceutical Industries, Ltd., priority 1984, dated 1988).
Where a name gives a salt, the structure may show the parent alone.

What was measured:
tonic seizure = assay: Antianxiety effect (bicuculline-induced tonic seizure); format: in vivo; conditions: Mus musculus, po, 1 hour before bicuculline 0.6 mg/kg i.v., male ddY-mice; read-out: ED50 (prevention of tonic seizure in half of the animals)
Description: Test compounds were orally administered to groups of seven male ddY-mice and an hour later 0.6 mg/kg of bicuculline was intraveneously administered. […] The ED50 (mg/kg) was calculated by the probit method as the dose which is sufficient to prevent tonic seizure in half of the animals.

hypoxia = assay: Effect on hypoxia (survival time); format: in vivo, female dd-strain mice; conditions: 30 mg/kg p.o., 30 min before hypoxia 200 mmHg, mice
Description: According to the method of Nakanishi et al described in Life Science, vol. 13, p. 467, 1973, 30 mg/kg of test compounds were orally administered to groups of six female dd-strain mice and 30 minutes later the survival time, i.e. time required until respiratory failure, was measured under the hypoxia condition of 200 mmHg. The extention of the survival time against the control group was expressed as a percentage and the results are summarized in Table 3.

gastric secretion = assay: Effect on gastric secretion (Shay pylorus ligation); format: in vivo; conditions: 10 mg/kg s.c., pylorus-ligated female Wistar rats, 4 hours
Description: The experiment was performed according to the method of Shay et al described in Gastroenterology, vol 5, p. 43, 1945.
Groups of ten female Wistar rats, weighing 130.200 g, were deprived of food and the abdomen of each rat was incised and the pylorus ligated under ether anesthesia. Immediately after pylorus ligation, 10 mg/kg of test compounds were subcutaneously administered. After 4 hours, the gastric contents were collected and centrifuged. The supernatant was regarded as volume of gastric secretion. The acidity of gastric juice was determined by titrating the gastric juice with 0.1N sodium hydroxide to pH 7.0 with an automatic titrator (Kyoto Denshi Kogyo K.K., AT-107).
The percent inhibitions (%) of the compounds of the present invention on volume of gastric juice secretion and acidity of gastric juice were calculated and the results are summarized in Table 1.

gastric mucous membrane = assay: Effect on injury of gastric mucous membrane (ethanol); format: in vivo, male Wistar rats; conditions: 30 min before ethanol 5 ml/kg p.o.
Description: Male Wistar rats, weighing 170-250 g, were deprived of food for 48 hours and water for 24 hours and then test compounds were intraperitoneally administered. Thirty minutes after administration of test compounds, 5 ml/kg of ethanol was orally administered. One hour later the stomach of each rat was excised and inflated with 8 ml of a 3% formalin solution. The stomach was incised along the greater curvature and the area (mm^2) of gastric injury were measured and summed. The square root of the sum was used as an ulcer index.

Toxicity = format: in vivo, ddY-mice
Description: Compounds of Examples 5, 11, 14, 15 and 55 were orally or intraperitoneally administered to groups of five ddY-mice.

Nc1nc(-c2ccc(CCN3CCN(c4cccc(C(F)(F)F)c4)CC3)s2)cs1 [Example 47, 2-Amino-4-[5-(2-(4-(3-trifluoromethylphenyl)-1-piperazinyl)ethyl)-2-thienyl]thiazole]
ED50 (tonic seizure): 21 mg/kg

CC(=O)NCc1ccc(-c2csc(N)n2)s1.Cl [Example 1, 2-amino-4-(5-acetylaminomethyl-2-thienyl)thiazole hydrochloride]
Extention of the survival time (percentage, against control group) (hypoxia): 280%

CC(C)NCc1ccc(-c2csc(N)n2)s1.O=C(O)/C=C\C(=O)O [Example 7, 2-Amino-4-(5-isopropylaminomethyl-2-thienyl)thiazole maleate]
Percent inhibition of acidity of gastric juice (gastric secretion): 31% | Percent inhibition of volume of gastric juice secretion (gastric secretion): 80% | Percent inhibition (ulcer index, against control group) (gastric mucous membrane; 3 mg/kg i.p.): 51% | Percent inhibition (ulcer index, against control group) (gastric mucous membrane; 10 mg/kg i.p.): 63%

Nc1nc(-c2ccc(CN3CCCCC3)s2)cs1.O=C(O)/C=C/C(=O)O [Example 6, 2-Amino-4-(5-piperidinomethyl-2-thienyl)thiazole fumarate]
Percent inhibition (ulcer index, against control group) (gastric mucous membrane; 10 mg/kg i.p.): 59% | Extention of the survival time (percentage, against control group) (hypoxia): 278%

Nc1nc(-c2ccc(CCN3CCN(c4cccc(Cl)c4)CC3)s2)cs1 [Example 55, 2-Amino-4-[5-(2-(4-(3-chlorophenyl)-1-piperazinyl)ethyl)-2-thienyl]thiazolehydrochloride]
ED50 (tonic seizure): 50 mg/kg | survival of mice, intraperitoneal (Toxicity; in vivo): All mice survived | survival of mice, oral (Toxicity; in vivo): All mice survived

Nc1nc(-c2ccc(CCN3CCCCC3)s2)cs1.O=C(O)/C=C\C(=O)O [Example 54, 2-Amino-4-[5-(2-piperidinoethyl)-2-thienyl]thiazole maleate]
ED50 (tonic seizure): 50 to 100 mg/kg

CCOCC(=O)NCc1ccc(-c2csc(N)n2)s1 [Example 14, 2-Amino-4-(5-ethoxyacetylaminomethyl-2-thienyl)thiazole]
Percent inhibition of acidity of gastric juice (gastric secretion): 39% | Percent inhibition of volume of gastric juice secretion (gastric secretion): 53% | Percent inhibition (ulcer index, against control group) (gastric mucous membrane; 3 mg/kg i.p.): 35% | Extention of the survival time (percentage, against control group) (hypoxia): 204% | survival of mice, intraperitoneal (Toxicity; in vivo): All mice survived | survival of mice, oral (Toxicity; in vivo): All mice survived

CC(=O)OCC(=O)NCc1ccc(-c2csc(N)n2)s1 [Example 11, 2-amino-4-(5-acetoxyacetylaminomethyl-2-thienyl) thiazole]
Percent inhibition (ulcer index, against control group) (gastric mucous membrane; 1 mg/kg i.p.): 73% | survival of mice, intraperitoneal (Toxicity; in vivo): All mice survived | survival of mice, oral (Toxicity; in vivo): All mice survived

Nc1nc(-c2ccc(CCN3CCOCC3)s2)cs1 [Example 65, 2Amino-4-[5-(2-morpholinoethyl)-2-thienyl]thiazole]
Percent inhibition of acidity of gastric juice (gastric secretion): 39% | Percent inhibition of volume of gastric juice secretion (gastric secretion): 61% | Extention of the survival time (percentage, against control group) (hypoxia): 158%

CCN(CC)Cc1ccc(-c2csc(N)n2)s1.O=C(O)/C=C/C(=O)O [Example 4, 2-Amino-4-(5-diethylaminomethyl-2-thienyl)thiazole fumarate]
Percent inhibition of acidity of gastric juice (gastric secretion): 38% | Percent inhibition of volume of gastric juice secretion (gastric secretion): 65%

c1ccc(Nc2nc(-c3ccc(CN4CCCCC4)s3)cs2)cc1 [Example 53, 2-Phenylamino-4-(5-piperidinomethyl-2-thienyl)thiazole]
ED50 (tonic seizure): 50 to 100 mg/kg

Nc1nc(-c2ccc(CNC(=O)COc3ccccc3)s2)cs1.O=C(O)/C=C\C(=O)O [Example 15, 2-Amino-4-(5-phenoxyacetylaminomethyl-2-thienyl)thiazole maleate]
survival of mice, intraperitoneal (Toxicity; 300 mg/kg intraperitoneal, five days after administration, ddY-mice): All mice survived | survival of mice, oral (Toxicity; 1000 mg/kg oral, five days after administration, ddY-mice): All mice survived

CC(Oc1ccccc1)C(=O)NCc1ccc(-c2csc(N)n2)s1.O=C(O)/C=C\C(=O)O (stereo not drawn) [Example 50, 2-Amino-4-[5-(2-phenoxypropionylaminomethyl)-2-thienyl]thiazole maleate]
Percent inhibition of acidity of gastric juice (gastric secretion): 37% | Percent inhibition of volume of gastric juice secretion (gastric secretion): 64%

Nc1nc(-c2ccc(CN3CCOCC3)s2)cs1 [Example 5, 2-Amino-4-(5-morpholinomethyl-2-thienyl)thiazole]
Percent inhibition of acidity of gastric juice (gastric secretion): 22% | Percent inhibition of volume of gastric juice secretion (gastric secretion): 66% | Extention of the survival time (percentage, against control group) (hypoxia): 367% | survival of mice, intraperitoneal (Toxicity; in vivo): All mice survived | survival of mice, oral (Toxicity; in vivo): All mice survived
